Test results taken from publication PMC9414874, “New Benzimidazoles Targeting Breast Cancer: Synthesis, Pin1 Inhibition, 2D NMR Binding, and Computational Studies” (Molecules, 2022).
Where “and” joins values, the source holds several entries; their conditions need not be identical. Identical values can stand only once. Like-named read-outs stand apart in the source and are kept apart here.

What was measured:
MCF-7 = test: MTT cytotoxicity assay against breast cancer cell line MCF-7; details: for Cytotoxic activity class against MCF-7: class by IC50
Protocol: All our newly synthesized hybrids were evaluated for their in vitro anticancer activity by the standard MTT assay against a breast cancer cell line (MCF-7). MTT is a calorimetric assay which relies on the ability of live tumor cells to reduce yellow MTT (3-(4,5-dimethylthiazol-2-yl)-2,5-diphenyltetrazolium bromide) to purple formazan by mitochondrial dehydrogenases, then added DMSO to dissolve the purple formazan and quantified by measuring absorbance at a certain wavelength. The dose response curve for compounds-treated vs. untreated cells is used to quantify the amount of formazan produced to report on the effectiveness of the compounds. […] Cell line: Mammary gland breast cancer (MCF-7). The cell line was obtained from ATCC via Holding company for biological products and vaccines (VACSERA), Cairo, Egypt. […] The cell line elucidated above were used to determine the inhibitory effects of compounds on cell growth using the MTT assay. […] After incubation, the cells were treated with different concentrations of compounds and incubated for an additional 24 h. After 24 h of drug treatment, 20 µL of MTT solution at 5 mg/mL was added and incubated for 4 h. […] The relative cell viability in percentage was calculated as (A570 of treated samples/A570 of the untreated sample) × 100 [48].

Pin1 [1] = molecular target: T1, Pin1 (Homo sapiens, UniProt Q13526); test: Pin1 inhibition assay (SensoLyte Green Pin1 Assay Kit); type: biochemical; set-up: purchased; details: for inhibition at 0.0001 µg/mL: conc 0.1 ng/ml; for inhibition at 0.0001 µg/mL / inhibition at 0.001 µg/mL / inhibition at 0.01 µg/mL / inhibition at 0.1 µg/mL: read-out: Pin1 %inh; for inhibition at 0.001 µg/mL: conc 1 ng/ml; for inhibition at 0.01 µg/mL: conc 10 ng/ml; for inhibition at 0.1 µg/mL: conc 100 ng/ml; for IC50: means ± SD of three experiments
Protocol: The ability of the synthesized compounds to inhibit the Pin1 activity was evaluated using the SensoLyte® Green Pin1 Assay Kit. This assay is based on using a fluorogenic substrate which was pretreated to convert it into the cis isomer. Pin1 can change this substrate into the trans isomer that is easily cleaved to generate a fluorescent signal.

[2] = In vitro cytotoxicity against normal Human lung fibroblast (WI38) cell line; type: cell-based; details: human, WI38 normal lung fibroblast cells
Pin1 [3] = molecular target: T1, Pin1; test: 2D 15N-1H HSQC NMR binding to 15N-labeled Pin1; set-up: Backbone and side-chain chemical shift assignments of full-length, apo, human Pin1; made in house; details: Pin1 200 µM, compound 1 mM, 5% DMSO
Text: Herein, ^15N-labeled Pin1 enzyme is used where we recorded HSQC spectra of the protein alone and in the presence of an excess amount of one of the newly synthesized compounds. The main challenge we faced in our research was the compound solubility in a balanced mixture of the protein aqueous buffer. Although our compound was freely soluble in DMSO, it is inapplicable to use pure DMSO to dissolve the protein because this will result in protein denaturation and probably aggregation. Therefore, only one compound was tested where we were able to dissolve it partially in a mixture of 95% buffer and 5% DMSO. In addition, as a control, the spectrum was recorded only in presence of DMSO and compared to the ones with the ligand. The proportion of Pin1 to the compounds was adjusted to be […]. […] Chemical shift perturbation and peak shifting are indicative of fast exchange between free and bound states which results in peak positions averaging. […] This peak disappearing indicated exchange on the μs–ms time scale (Figure 1). Furthermore, our NMR results have been verified using cell lines.
The expression and purification of ^15N-labeled Pin1 was performed according to the known protocol. The enzyme sample reached a final concentration of 200 µM in PBS buffer at pH = 6.5. Compound number 12 was dissolved in DMSO and added to the protein to achieve a final concentration of 1 mM in the NMR tube. […]

Pin1's PPIase activity = molecular target: Pin1's PPIase activity; set-up: method as in PMID 19969456; details: read-out: IC50 of Pin1's PPIase activity inhibition; cited from earlier work
[4] = Homo sapiens, MCF7, 24 h, read-out: In Vitro Cytotoxicity IC50 MCF-7, MTT assay, 24 h treatment
[5] = Homo sapiens, MCF7, read-out: IC50 against breast cancer cell line (MCF-7), MTT assay, section 2.2

T1 sequence (Q13526 whole entry): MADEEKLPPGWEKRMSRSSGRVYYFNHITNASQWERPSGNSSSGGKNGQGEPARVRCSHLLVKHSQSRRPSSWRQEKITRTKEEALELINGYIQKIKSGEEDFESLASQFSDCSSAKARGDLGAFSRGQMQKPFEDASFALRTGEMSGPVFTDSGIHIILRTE

| Compound | melting point | IC50 (MCF-7; [4]) | Cytotoxic activity class against MCF-7 (MCF-7) | further results |
| --- | --- | --- | --- | --- |
| 2-(4-Bromophenyl)-7,8-dichlorobenzo[4,5]imidazo[1,2-a]pyridin-4-ol [Compound 14] | – | – | – | IC50 (MCF-7): 46 ± 2.9 µM |
| CC(O)c1nc2cc(Cl)c(Cl)cc2[nH]1 (stereo not shown) [Compound 2] | – | – | – | inhibition at 0.0001 µg/mL (Pin1 [1]): 39.2%; inhibition at 0.001 µg/mL (Pin1 [1]): 51.1%; inhibition at 0.01 µg/mL (Pin1 [1]): 67%; inhibition at 0.1 µg/mL (Pin1 [1]): 85.2% |
| CN(C)c1ccc(/C=C/C(=O)c2nc3cc(Cl)c(Cl)cc3[nH]2)cc1 [Compound 4, (E)-1-(5,6-Dichloro-1H-benzo[d]imidazol-2-yl)-3-(4-(dimethylamino)phenyl)prop-2-en-1-one] | 258 to 260 °C | 26.9 µM | moderate (21–50 (moderate)) | IC50 (MCF-7; read-out: In Vitro Cytotoxicity IC50 MCF-7, MTT assay, 24 h treatment): 26.8 ± 2.1 µM |
| CN(C)c1ccc(C2=NN=C(c3nc4cc(Cl)c(Cl)cc4[nH]3)C2)cc1 [Compound 5, 4-(5-(5,6-Dichloro-1H-benzo[d]imidazol-2-yl)-4H-pyrazol-3-yl)-N,N-dimethylaniline] | 216 °C | 11.7 ± 0.9 µM | strong (11–20 (strong)) | IC50 (MCF-7; [5]): 11.8 µM; IC50 (Pin1 [1]): 0.00064 ± 3e-05 µM; IC50 at 24 h [2]: 67.9 ± 3.6 µM |
| CN(C)c1ccc(-c2cc(-c3nc4cc(Cl)c(Cl)cc4[nH]3)nc(N)c2C#N)cc1 [Compound 6, 2-Amino-6-(5,6-dichloro-1H-benzo[d]imidazol-2-yl)-4-(4-(dimethylamino)phenyl)nicotinonitrile] | 168 to 170 °C | 15.4 ± 1.3 µM | strong (11–20 (strong)) | IC50 (MCF-7; [5]): 15.5 µM |
| CN(C)c1ccc(C2C=C(c3nc4cc(Cl)c(Cl)cc4[nH]3)OC(N)=C2C#N)cc1 (stereo not shown) [Compound 7, 2-Amino-6-(5,6-dichloro-1H-benzo[d]imidazol-2-yl)-4-(4-(dimethylamino)phenyl)-4H-pyran-3-carbonitrile] | 150 °C | 21 ± 1.8 µM | moderate (21–50 (moderate)) | – |
| CC(=O)c1nc2cc(Cl)c(Cl)cc2n1CC(=O)c1ccc(Br)cc1 [Compound 9, 2-(2-Acetyl-5,6-dichloro-1H-benzo[d]imidazol-1-yl)-1-(4-bromophenyl)ethan-1-one] | 322 °C | 63.9 ± 3.4 µM | – | inhibition at 0.0001 µg/mL (Pin1 [1]): 34.7%; inhibition at 0.001 µg/mL (Pin1 [1]): 42.2%; inhibition at 0.01 µg/mL (Pin1 [1]): 69.5%; inhibition at 0.1 µg/mL (Pin1 [1]): 87.5% |
| C=C1c2nc3cc(Cl)c(Cl)cc3n2C=C(c2ccc(Br)cc2)N1c1ccc(C)cc1 [Compound 10, 3-(4-Bromophenyl)-7,8-dichloro-1-methylene-2-(p-tolyl)-1,2-dihydrobenzo[4,5]imidazo[1,2-a]pyrazine] | 211 °C | 53 ± 3.1 µM | weak (51–100 (weak)) | – |
| O=C(O)c1cc2ccccc2[nH]1 [Indole-2-carboxylic acid (I), Indole-2-carboxylic acid] | – | – | – | IC50 (Pin1's PPIase activity): 16 µM |
| Tannic acid [reference compound] | – | – | – | IC50 (Pin1 [1]): 0.000535 µM and 0.00053 µM |

Second part, led by results:

| melting point | Compound | IC50 (MCF-7; [4]) | Cytotoxic activity class against MCF-7 (MCF-7) | further results |
| --- | --- | --- | --- | --- |
| 106 °C | C=C1c2nc3cc(Cl)c(Cl)cc3n2C=C(c2ccc(Br)cc2)N1c1ccccc1C [Compound 11, 3-(4-Bromophenyl)-7,8-dichloro-1-methylene-2-(o-tolyl)-1,2-dihydrobenzo[4,5]imidazo[1,2-a]pyrazine] | 38 ± 2.7 µM | moderate (21–50 (moderate)) | – |
| 85 °C | C=C1c2nc3cc(Cl)c(Cl)cc3n2C=C(c2ccc(Br)cc2)N1Cc1ccccc1 [Compound 12, 2-Benzyl-3-(4-bromophenyl)-7,8-dichloro-1-methylene-1,2-dihydrobenzo[4,5]imidazo[1,2-a]pyrazine] | 31.3 ± 2.5 µM | moderate (21–50 (moderate)) | IC50 (Pin1 [1]): 0.00111 µM and 0.0011 µM; IC50 at 24 h [2]: 45.7 ± 2.8 µM; Binding to Pin1 by HSQC spectra overlay (Pin1 [3]): chemical shift perturbation and peak disappearance |
| 290 °C | Cc1nc(-c2ccc(Br)cc2)cn2c1nc1cc(Cl)c(Cl)cc12 [Compound 13, 3-(4-Bromophenyl)-7,8-dichloro-1-methylbenzo[4,5]imidazo[1,2-a]pyrazine] | 71.8 ± 3.8 µM | weak (51–100 (weak)) | IC50 (MCF-7; [5]): 71.9 µM |
